Data reported in patent US10450573B2, “Compositions and methods for regulation of gene expression with, and detection of, folinic acid and folates” (The Board of Trustees of the Leland Stanford Junior …, priority 2014, dated 2019).

B1: L2b8: parent theophylline-responsive ribozyme switch, SEQ ID NO: 43 (nucleic acid)
chain: AAACAAACAAAGCTGTCACCGGATGTGCTTTCCGGTCTGATGAGTCCGTTGTCCATACCAGCATCGTCTTGATGCCCTTGGCAGGGACGGGACGGAGGACGAAACAGCAAAAAGAAAAATAAAAA
modifications: listed as DNA, chemistry not fully specified
B2: tFA8-18: truncated (6S)-FA specific RNA aptamer, SEQ ID NO: 23 (nucleic acid)
chain: CUCGUCAAUGCAUAUGUAACGUUAACGGCGCUACCUGUACAAUGCACGUUCCGAGCGCCCGGAGACGAG
modifications: unmodified RNA

Columns and labels:
[1] = cited from earlier work; for concentration that can accumulate in human blood plasma: intravenous infusion
[2] = Surface plasmon resonance aptamer binding assay, (6R)-folinic acid; details: for ka, (6R)-Folinic Acid / kd, (6R)-Folinic Acid / Kd: SPR, 25° C., selection buffer pH 7.4, 5 mM MgCl2; for ka, (6R)-Folinic Acid / kd, (6R)-Folinic Acid: 1:1 binding model; for Selectivity: between (6R)- and (6S)-folinic acid diastereomers
Protocol: (§1) Surface plasmon resonance characterization of aptamer binding properties. Nucleic acid aptamer preparation. RNA aptamers were prepared by PCR amplification of DNA template sequences (Table 4, Integrated DNA Technologies, Coralville, Iowa) using forward and reverse primers Biacore-fwd and Biacore-rev, respectively, followed by transcription of the PCR product using the MEGAshortscript T7 transcription kit (Life Technologies) and purification of the transcription product using the RNA Clean & Concentrator kit (Zymo Research, Irvine, Calif.), according to the manufacturers' instructions. Aptamers were resuspended in selection buffer, denatured at 65° C. for 5 min, and cooled to room temperature directly before use.
(§2) Sensor chip surface generation. Experiments were performed on a Biacore X100 instrument (GE Healthcare) at 25° C. A CM5 sensor chip (GE Healthcare) was equilibrated with HBS-N buffer. The DNA linker strand (5′-AmMC6-[…]) (Integrated DNA Technologies) (SEQ ID NO:133), with an amino modified 6-carbon linker on the 5′ end, was immobilized to the chip surface. The carboxymethylated dextran surface of the CM5 chip was activated for 7 min at a flow rate of 10 μL/min using a 1:1 volume ratio of 0.4 M 1-ethyl-3-(3-dimethylaminopropyl) carbodiimide (GE Healthcare) and 0.1 M N-hydroxysuccinimide (GE Healthcare). A molar ratio of 1:30 of DNA strand to hexadecyltrimethylammonium bromide (Sigma-Aldrich, St. Louis, Mo.) was diluted in 10 mM HEPES buffer (Sigma-Aldrich) to a final concentration of 20 μM and 0.6 mM, respectively, and injected over the activated surface for 10 min at a flow rate of 5 μL/min. Excess activated groups were blocked by an injection of 1 M ethanolamine (GE Healthcare), pH 8.5, for 7 min at a flow rate of 10 μL/min. The immobilization reaction was performed sequentially on both flow cells (FC1, FC2) and yielded approximately 4,000 RU of the DNA strand.
(§3) Aptamer binding assay. The Biacore X100 instrument was primed three times with running buffer prior to all binding assays. For each assay, three startup cycles were performed to stabilize the sensorgram baseline. For each startup cycle, the aptamer (˜40-70 ng/μL, ˜3 μM) was captured onto the sample flow cell (FC2) for 40 s at a flow rate of 5 μL/min. 25 mM NaOH (GE Healthcare) was injected for 30 s at a flow rate of 30 μL/min over both flow cells to regenerate the sensor surface. A dilution series of (6R)- or (6S)-folinic acid (Schircks Laboratories, Jona, Switzerland) was prepared in selection buffer and filtered through a 0.2 μm membrane (Pall Corporation, Port Washington, N.Y.). For each concentration sample, the aptamer was captured onto the sample flow cell (FC2) for 40 s at a flow rate of 5 μL/min, the folinic acid solution was injected over both flow cells at a flow rate of 30 μL/min to monitor target association, and selection buffer was injected over both flow cells at a flow rate of 30 μL/min to monitor target dissociation. Association and dissociation phase lengths used were chosen based on time needed to reach equilibrium. Aptamer and folinic acid were removed from the sensor surface by injecting 25 mM NaOH for 30 s at a flow rate of 30 μL/min over both flow cells.
(§4) Data processing and analysis were performed using Biacore X100 Evaluation Software version 2.0 (GE Healthcare). A double-referencing method was performed to process all datasets. Data from the sample flow cell (FC2) were referenced first by subtracting data from the reference flow cell (FC1) to correct for bulk refractive index changes, nonspecific binding, injection noise, matrix effects, and baseline drift. Reference-subtracted data (FC2−FC1) were double-referenced with a blank injection of running buffer to account for any systematic drift over the course of the injection. Double-referenced data were fit to a 1:1 binding model for kinetic analysis or steady-state affinity model for thermodynamic analysis. […]

[3] = Surface plasmon resonance aptamer binding assay, (6S)-folinic acid; details: SPR, 25° C., selection buffer pH 7.4, 5 mM MgCl2; for ka, (6S)-Folinic Acid / kd, (6S)-Folinic Acid: 1:1 binding model
Protocol: as §1, §2, §3, §4

[4] = SPR binding to (6R,S)-5-methyl-5,6,7,8-tetrahydrofolic acid; details: ligand is mixture of (6R) and (6S) diastereomers; for Kd: read-out: KD, (6R,S)-5-methyl-THF
[5] = SPR binding to (6R,S)-5-formyl-5,6,7,8-tetrahydropteroic acid; details: ligand is mixture of (6R) and (6S) diastereomers; for Kd: read-out: KD, (6R,S)-5-formyl-THPteroic Acid
[6] = tested on: GFP expression; test: Gene-regulatory activity of ribozyme-based switches in yeast (GFP, flow cytometry); format: cell-based, Saccharomyces cerevisiae; details: normalized to sTRSV Contl
Protocol: Plasmid and strain construction. Standard molecular biology cloning techniques were used to construct all plasmids. DNA synthesis was performed by Integrated DNA Technologies (Coralville, Iowa) or the Protein and Nucleic Acid Facility (Stanford, Calif.). All enzymes, including restriction enzymes and ligases, were obtained through New England Biolabs (Ipswich, Mass.). Ligation products were electroporated with a GenePulser XCell (Bio-Rad, Hercules, Calif.) into an E. coli DH10B strain (Invitrogen, Carlsbad, Calif.), where cells harboring cloned plasmids were maintained in Luria-Bertani media containing 50 μg/mL ampicillin (EMD Chemicals, Philadelphia, Pa.). […]
The two-color screening plasmid pCS1748; single-color plasmids harboring GFP (pCS1585) and mCherry (pCS1749) for use as compensation controls; and no-color plasmid pCS4, containing no fluorescence reporter gene, was used as the negative-control construct. […]
Cell sorting screen for functional ligand-responsive RNA switches. […] Transformation efficiencies were determined by plating serial dilutions of the transformants, and transformed cells were propagated in SC-URA media for FACS.
Two-color FACS-based screen. […] GFP was excited at 488 nm and measured with a splitter of 505 nm and bandpass filter of 525/50 nm. mCherry was excited at 532 nm and measured with a splitter of 600 nm and a bandpass filter of 610/20 nm. […]

Molecule	plasma concentration compared to the (6S) diastereomer ([1]; in vivo) [fold]	plasma half-life compared to the (6S) diastereomer ([1]; in vivo)	concentration that can accumulate in human blood plasma [1]	ka, (6R)-Folinic Acid [2] [M⁻¹ s⁻¹]	kd, (6R)-Folinic Acid [2] [s⁻¹]	Kd [2] [µM]	Selectivity [2]	ka, (6S)-Folinic Acid [3] [M⁻¹ s⁻¹]	kd, (6S)-Folinic Acid [3] [s⁻¹]	Kd [3] [µM]	ka, (6R,S)-5-methyl-THF [4] [M⁻¹ s⁻¹]	kd, (6R,S)-5-methyl-THF [4] [s⁻¹]	Kd [4] [µM]	ka, (6R,S)-5-formyl-THPteroic Acid [5] [M⁻¹ s⁻¹]	kd, (6R,S)-5-formyl-THPteroic Acid [5] [s⁻¹]	Kd [5] [µM]	normalized GFP expression ([6]; absence of theophylline) [%]	normalized GFP expression ([6]; presence of 5 mM theophylline) [%]
Nc1nc2c(c(=O)[nH]1)N(C=O)[C@H](CNc1ccc(C(=O)N[C@@H](CCC(=O)O)C(=O)O)cc1)CN2 [(6R)-folinic acid]	≤ 18	up to 15 fold	up to 77.6 μM	–	–	–	–	–	–	–	–	–	–	–	–	–	–	–
Nc1nc(=O)c2c([nH]1)NC[C@H](CNc1ccc(C(=O)N[C@@H](CCC(=O)O)C(=O)O)cc1)N2C=O [(6S)-folinic acid]	–	–	≤ 7.95 µM	–	–	–	–	–	–	–	–	–	–	–	–	–	–	–
tFA6-8: truncated (6R)-FA specific RNA aptamer, SEQ ID NO: 21 (UUCCCGUCAGGUACGUUAUAUUCGGGGGA; unmodified RNA)	–	–	–	77900	0.0176	0.225	567	2330	0.297	128	–	–	–	–	–	–	–	–
tFA8-4: truncated (6R)-FA specific RNA aptamer, SEQ ID NO: 18 (GCUUGGCGUUGCGUGGUACGUUAUAUUCCGGCCAAGC; unmodified RNA)	–	–	–	269000	0.00515	0.0192	260	21100	0.105	4.98	33500	0.211	6.29	135000	0.00494	0.0366	–	–
tFA8-11: truncated (6R)-FA specific RNA aptamer, SEQ ID NO: 20 (UGCAGUGCUUGGUACGUUAUAUUCAGCUGCA; unmodified RNA)	–	–	–	116000	0.00468	0.0405	855	6560	0.227	34.6	14300	0.195	13.6	750000	0.00568	0.0757	–	–
tFA8-16: truncated (6R)-FA specific RNA aptamer, SEQ ID NO: 22 (CUCCUUCCGGUGACCUGGACGUUAUUUCCGGCCGAAGGGAG; unmodified RNA)	–	–	–	33000	0.0602	1.82	684	682	0.85	1250	–	–	–	–	–	–	–	–
tFA10-7: truncated (6S)-FA specific RNA aptamer, SEQ ID NO: 24 (ACGGCGAAGAGUCAAAGCAUCCCCUGCGAAAGCAGGGCCCGU; unmodified RNA)	–	–	–	–	–	74.4	515	53600	0.00775	0.144	–	–	81.8	35200	0.00697	0.198	–	–
B1	–	–	–	–	–	–	–	–	–	–	–	–	–	–	–	–	~10.8	~36.7
B2	–	–	–	94	0.00355	37.7	600	36100	0.00227	0.0628	–	–	447	53200	0.00633	0.119	–	–
